Consider seven molecules from PubChem BioAssay (NCI).

Values joined by “and” are separate entries in the source; they are usually repeats but may differ in a detail not shown here. Identical values can stand only once.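 Assay format: 96-well plates, 48-hour exposure. At the GI50, growth is halved. TGI marks complete inhibition of growth.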

Test systems include A498 renal; HCT-15 colon; LOX IMVI melanoma; MDA-MB-231 breast; MOLT-4 leukemia; NCI-H226 lung; NCI-H522 lung; OVCAR-5 ovarian; OVCAR-8 ovarian; TK-10 renal.
Assay in all cases: DTP human tumour cell line panel, 48 h

Broadly, the GI50 is the concentration that inhibits growth by half. The term TGI denotes the concentration at which net growth stops. A high value points to less potent growth arrest. As for `O=C(/C=C/c1ccccc1)CC(c1ccccc1)N1CCOCC1` (configuration not stated), the GI50 in the assay with A498 renal was 12.9 µM; with HCT-15 colon, 1.96 µM; in the assay on LOX IMVI melanoma it was 0.371 µM; with MDA-MB-231 breast, 2.64 µM; in the assay with MOLT-4 leukemia it was 3.12 µM; with NCI-H226 lung it was 5.39 µM. The GI50 was 4.1 µM in the assay with NCI-H522 lung, 9.79 µM in the assay on OVCAR-5 ovarian, 4.57 µM in the assay with OVCAR-8 ovarian and 8.63 µM with TK-10 renal. The TGI in the assay on A498 renal was 26.2 µM; with HCT-15 colon, 5.52 µM; in the assay on LOX IMVI melanoma, 1.36 µM; in the assay on MDA-MB-231 breast, 6.95 µM; with MOLT-4 leukemia, 9.87 µM; in the assay with NCI-H226 lung it was 24.2 µM. Also, the TGI worked out at 20 µM with NCI-H522 lung, 22.1 µM in the assay on OVCAR-5 ovarian, 17.3 µM in the assay on OVCAR-8 ovarian and 24.5 µM with TK-10 renal.

On to `Cc1nc(Nc2n[nH]c3c2CN(C(=O)N[C@H](CN(C)C)c2ccccc2)C3(C)C)c2sccc2n1`, for which the TGI in the assay with A498 renal is 1.85 µM and 3.25 µM; in the assay on HCT-15 colon it was > 10 µM and 68.5 µM; with LOX IMVI melanoma, 1.38 µM and 2.16 µM; in the assay on MDA-MB-231 breast it was 1.98 µM and 1.95 µM; with MOLT-4 leukemia, 9.74 µM and 7.04 µM; in the assay with NCI-H226 lung it was > 5.18 µM and 5.01 µM. Besides, the TGI in the assay with NCI-H522 lung is 2.28 µM and 2.74 µM; with OVCAR-5 ovarian, > 8.88 µM and 25.2 µM; in the assay with OVCAR-8 ovarian, > 10 µM and 15.6 µM; in the assay on TK-10 renal, 3.92 µM and 6.08 µM. The GI50 in the assay with HCT-15 colon was 0.687 µM and 1.26 µM; with LOX IMVI melanoma it was 0.0087 µM and < 0.0119 µM; in the assay with MDA-MB-231 breast, 0.0856 µM and 0.0341 µM; with MOLT-4 leukemia, 0.092 µM and 0.276 µM; with NCI-H226 lung, 0.341 µM and 0.302 µM; in the assay on NCI-H522 lung, < 0.0168 µM and 0.0398 µM. In addition, the GI50 in the assay with OVCAR-5 ovarian is 0.0686 µM and 0.322 µM; in the assay on OVCAR-8 ovarian, 0.0839 µM and 0.306 µM; in the assay with TK-10 renal it was 0.0982 µM and 0.491 µM.

For the molecule `O=S(=O)(CCOCc1ccc(-c2ccc3ncnc(Nc4ccc(OCc5cccc(F)c5)c(Cl)c4)c3c2)o1)c1ccccc1`, the GI50 in the assay on A498 renal is more than 7 µM; in the assay on HCT-15 colon it was more than 25 µM; in the assay with LOX IMVI melanoma it was more than 25 µM; in the assay on MDA-MB-231 breast, more than 25 µM; with MOLT-4 leukemia, more than 25 µM; in the assay on NCI-H226 lung, more than 25 µM. In addition, the GI50 in the assay on NCI-H522 lung was more than 25 µM; in the assay with OVCAR-5 ovarian, more than 25 µM; in the assay with OVCAR-8 ovarian, more than 25 µM; with TK-10 renal, 1.17 µM. Further, the TGI in the assay on A498 renal, with HCT-15 colon, in the assay with LOX IMVI melanoma, in the assay on MDA-MB-231 breast, with MOLT-4 leukemia and in the assay with NCI-H226 lung was more than 25 µM each time. In addition, the TGI in the assay with NCI-H522 lung, in the assay with OVCAR-5 ovarian, with OVCAR-8 ovarian and in the assay on TK-10 renal was more than 25 µM in each case.

Take `CNC(=O)c1cc2c(Oc3ccc(NC(=O)C4(C(=O)Nc5ccc(F)cc5)CC4)cc3)ccnc2cc1OC`: the GI50 in the assay with A498 renal is 1.28 µM; in the assay on HCT-15 colon, 2.77 µM; in the assay with LOX IMVI melanoma, 2.57 µM; in the assay on MDA-MB-231 breast, 2.41 µM; with MOLT-4 leukemia, 2.23 µM; in the assay with NCI-H226 lung, 2.47 µM. Also, the GI50 was 2.51 µM in the assay with NCI-H522 lung, 3.17 µM in the assay with OVCAR-5 ovarian and 3.77 µM in the assay with OVCAR-8 ovarian. Besides, the TGI with A498 renal is 3.27 µM; in the assay on HCT-15 colon, more than 100 µM; in the assay with LOX IMVI melanoma, 8.93 µM; in the assay with MDA-MB-231 breast it was more than 100 µM; in the assay on MOLT-4 leukemia, 8.18 µM; in the assay with NCI-H226 lung it was 10.7 µM. Besides, the TGI in the assay on NCI-H522 lung, in the assay with OVCAR-5 ovarian and with OVCAR-8 ovarian was more than 100 µM throughout.

For `O=S1(=O)NCCCN1CCNc1nccc(-c2c(-c3cccc(O)c3)nc3sccn23)n1`, the GI50 in the assay on A498 renal is 15.5 µM; in the assay on HCT-15 colon it was 43.6 µM; with LOX IMVI melanoma, 2.46 µM; in the assay with MDA-MB-231 breast, 16.1 µM; with MOLT-4 leukemia, 22.9 µM; in the assay with NCI-H226 lung, 18.9 µM. Also, the GI50 in the assay on NCI-H522 lung was 14.6 µM; in the assay on OVCAR-5 ovarian it was 49.8 µM; in the assay on OVCAR-8 ovarian, 2.86 µM; in the assay with TK-10 renal, 33.6 µM. Moreover, the TGI in the assay on A498 renal was 45.9 µM; in the assay on HCT-15 colon it was more than 100 µM; in the assay with LOX IMVI melanoma it was 24 µM; in the assay with MDA-MB-231 breast it was more than 100 µM; with MOLT-4 leukemia, more than 77.6 µM; in the assay on NCI-H226 lung, 73.9 µM. Further, the total growth inhibition concentration (TGI) in the assay with NCI-H522 lung is 80.7 µM; in the assay with OVCAR-5 ovarian, more than 100 µM; in the assay with OVCAR-8 ovarian, more than 100 µM; with TK-10 renal it was more than 100 µM.

For the molecule `O=C(O)CCC(NC(=S)S)C(=O)O.[Na+].[Zn+2]` (configuration not stated), the GI50 in the assay on A498 renal, in the assay on HCT-15 colon, in the assay with LOX IMVI melanoma, with MDA-MB-231 breast, in the assay on MOLT-4 leukemia and in the assay on NCI-H226 lung was more than 50 µM throughout. Moreover, the GI50 with NCI-H522 lung, with OVCAR-5 ovarian, with OVCAR-8 ovarian and in the assay with TK-10 renal was more than 50 µM each time. The TGI in the assay with A498 renal, in the assay on HCT-15 colon, in the assay on LOX IMVI melanoma, with MDA-MB-231 breast, with MOLT-4 leukemia and with NCI-H226 lung was more than 50 µM throughout. The TGI in the assay on NCI-H522 lung, in the assay with OVCAR-5 ovarian, in the assay with OVCAR-8 ovarian and in the assay on TK-10 renal was more than 50 µM in each case.

As for `NC(=O)c1cccc(Nc2nccc(Nc3cccc(F)c3)n2)c1`, the GI50 was 4.3 µM in the assay with A498 renal; 7.69 µM in the assay on HCT-15 colon; 7.66 µM in the assay on LOX IMVI melanoma; 17.5 µM in the assay with MDA-MB-231 breast; 13.1 µM in the assay with MOLT-4 leukemia; 4.74 µM in the assay on NCI-H226 lung. Besides, the GI50 is 5.82 µM in the assay with NCI-H522 lung, 8.07 µM in the assay on OVCAR-5 ovarian, 9.49 µM with OVCAR-8 ovarian and 6.51 µM in the assay with TK-10 renal. The TGI in the assay with A498 renal is 16 µM; with HCT-15 colon, more than 25 µM; in the assay with LOX IMVI melanoma it was more than 25 µM; in the assay with MDA-MB-231 breast it was more than 25 µM; with MOLT-4 leukemia, more than 25 µM; with NCI-H226 lung it was more than 21.7 µM. The TGI in the assay on NCI-H522 lung is more than 23.8 µM; in the assay with OVCAR-5 ovarian, more than 25 µM; in the assay with OVCAR-8 ovarian, more than 25 µM; with TK-10 renal it was more than 23.7 µM.
